molecular target: T1, human Cav2.2α (α1B) subunit, along with the human β3 and α2δ1 auxiliary subunits (Homo sapiens, UniProt Q00975); experiment: hCav2.2 assay (IonWorks planar array electrophysiology); format: cell-based; conditions: HEK293 cells; inhibition of current elicited by the 1st depolarising pulse by 50%; read-out: mean pIC50 value (tonic pIC50) (converted)
T1 construct: expressed in transfected cells; plasmids pCIN5-hCav2.2, pCIH-hCav β3, pCIP-α2δ1
Protocol: Compounds of the invention may be tested for in vitro biological activity in the hCav2.2 assay in accordance with the following studies:
Stable cell lines expressing the human Cav2.2α (α1B) subunit, along with the human β3 and α2δ1 auxiliary subunits were created following sequential transfection and selection of human embryonic kidney (HEK293) cells. HEK293 cells were cultured in Dulbecco's modified Eagles media/F12 media (Invitrogen, Cat #041-95750V) containing 10% fetal bovine serum, with added L-glutamine (2 mM; Invitrogen, Cat #25030-024) and non-essential amino acids (5%; Invitrogen, Cat #11140-035). Initially HEK293 cells were transfected with two plasmid vectors for expression of the hCav2.2α subunit (pCIN5-hCav2.2 which carries a neomycin resistance marker) and the hCav β3 subunit (pCIH-hCav β3 which carries a hygromycin resistance marker). Clonal cell lines were isolated following selection in media supplemented with 0.4 mg ml^−1 Geneticin G418 (Invitrogen, Cat #10131-027) and 0.1 mg ml^−1 hygromycin (Invitrogen, Cat #10687-010). These clonal cell lines were assessed for Cav2.2α/β3-mediated current expression using the IonWorks planar array electrophysiology technology (described below). A clonal line was identified that gave a reasonable level of functional Cav2.2α/β3 current expression. This cell line was transfected with a plasmid vector for expression of the human α2δ1 subunit (pCIP-α2δ1 which carries a puromycin resistance marker) and clonal cell lines isolated following selection in media containing 0.62 μg ml^−1 puromycin (Sigma, Cat # P-7255), in addition to 0.4 mg ml^−1 Geneticin G418 and 0.1 mg ml^−1 hygromycin. Several cell lines were identified that gave robust levels of Cav2.2α/β3/α2δ1-mediated current expression and one of these was selected for compound profiling. Expression of all three subunits within this cell line was continuously maintained by the inclusion of G418 (0.4 mg ml^−1), hygromycin (0.1 mg ml^−1) and puromycin (0.62 μg ml^−1). Cells were maintained at 37° C. in a humidified environment containing 5% CO2 in air. Cells were liberated from the T175 culture flasks for passage and harvesting using TrpLE (Invitrogen, Cat #12604-013).
Cells were grown to 30-60% confluence in T175 flasks and maintained at 30° C. for 24 hrs prior to recording. Cells were lifted by removing the growth media, washing with Ca^2+free PBS (Invitrogen, Cat #14190-094) and incubating with 3 ml of warmed (37° C.) TrpLE (Invitrogen, Cat #12604-013) for 6 minutes. Lifted cells were suspended in 10 ml of extracellular buffer. Cell suspension was then placed into a 15 ml tube and centrifuged for 2 minutes at 700 rpm. After centrifugation, the supernatant was removed and the cell pellet was resuspended in 4.5 ml of extracellular solution.
Currents were recorded at room temperature (21-23° C.) using the IonWorks planar array electrophysiology technology (Molecular Devices Corp.). Stimulation protocols and data acquisition were carried out using a microcomputer (Dell Pentium 4). In order to determine planar electrode hole resistances (Rp), a 10 mV, 160 ms potential difference was applied across each hole. These measurements were performed before cell addition. After cell addition a seal test was performed prior to antibiotic (amphotericin) circulation to achieve intracellular access. Leak subtraction was conducted in all experiments by applying a 160 ms hyperpolarizing (10 mV) prepulse 200 ms before the test pulses to measure leak conductance. Test pulses stepping from the holding potential (VH) of −90 mV to +10 mV were applied for 20 ms and repeated 10 times at a frequency of 10 Hz. In all experiments, the test pulse protocol was performed in the absence (pre-read) and presence (post-read) of a compound. Pre- and post-reads were separated by a compound addition followed by a 3-3.5 min incubation.
The intracellular solution contained the following (in mM): K-gluconate 120, KCl 20 mM, MgCl2 5, EGTA 5, HEPES 10, adjusted to pH 7.3. […]

T1 sequence (Q00975 whole entry): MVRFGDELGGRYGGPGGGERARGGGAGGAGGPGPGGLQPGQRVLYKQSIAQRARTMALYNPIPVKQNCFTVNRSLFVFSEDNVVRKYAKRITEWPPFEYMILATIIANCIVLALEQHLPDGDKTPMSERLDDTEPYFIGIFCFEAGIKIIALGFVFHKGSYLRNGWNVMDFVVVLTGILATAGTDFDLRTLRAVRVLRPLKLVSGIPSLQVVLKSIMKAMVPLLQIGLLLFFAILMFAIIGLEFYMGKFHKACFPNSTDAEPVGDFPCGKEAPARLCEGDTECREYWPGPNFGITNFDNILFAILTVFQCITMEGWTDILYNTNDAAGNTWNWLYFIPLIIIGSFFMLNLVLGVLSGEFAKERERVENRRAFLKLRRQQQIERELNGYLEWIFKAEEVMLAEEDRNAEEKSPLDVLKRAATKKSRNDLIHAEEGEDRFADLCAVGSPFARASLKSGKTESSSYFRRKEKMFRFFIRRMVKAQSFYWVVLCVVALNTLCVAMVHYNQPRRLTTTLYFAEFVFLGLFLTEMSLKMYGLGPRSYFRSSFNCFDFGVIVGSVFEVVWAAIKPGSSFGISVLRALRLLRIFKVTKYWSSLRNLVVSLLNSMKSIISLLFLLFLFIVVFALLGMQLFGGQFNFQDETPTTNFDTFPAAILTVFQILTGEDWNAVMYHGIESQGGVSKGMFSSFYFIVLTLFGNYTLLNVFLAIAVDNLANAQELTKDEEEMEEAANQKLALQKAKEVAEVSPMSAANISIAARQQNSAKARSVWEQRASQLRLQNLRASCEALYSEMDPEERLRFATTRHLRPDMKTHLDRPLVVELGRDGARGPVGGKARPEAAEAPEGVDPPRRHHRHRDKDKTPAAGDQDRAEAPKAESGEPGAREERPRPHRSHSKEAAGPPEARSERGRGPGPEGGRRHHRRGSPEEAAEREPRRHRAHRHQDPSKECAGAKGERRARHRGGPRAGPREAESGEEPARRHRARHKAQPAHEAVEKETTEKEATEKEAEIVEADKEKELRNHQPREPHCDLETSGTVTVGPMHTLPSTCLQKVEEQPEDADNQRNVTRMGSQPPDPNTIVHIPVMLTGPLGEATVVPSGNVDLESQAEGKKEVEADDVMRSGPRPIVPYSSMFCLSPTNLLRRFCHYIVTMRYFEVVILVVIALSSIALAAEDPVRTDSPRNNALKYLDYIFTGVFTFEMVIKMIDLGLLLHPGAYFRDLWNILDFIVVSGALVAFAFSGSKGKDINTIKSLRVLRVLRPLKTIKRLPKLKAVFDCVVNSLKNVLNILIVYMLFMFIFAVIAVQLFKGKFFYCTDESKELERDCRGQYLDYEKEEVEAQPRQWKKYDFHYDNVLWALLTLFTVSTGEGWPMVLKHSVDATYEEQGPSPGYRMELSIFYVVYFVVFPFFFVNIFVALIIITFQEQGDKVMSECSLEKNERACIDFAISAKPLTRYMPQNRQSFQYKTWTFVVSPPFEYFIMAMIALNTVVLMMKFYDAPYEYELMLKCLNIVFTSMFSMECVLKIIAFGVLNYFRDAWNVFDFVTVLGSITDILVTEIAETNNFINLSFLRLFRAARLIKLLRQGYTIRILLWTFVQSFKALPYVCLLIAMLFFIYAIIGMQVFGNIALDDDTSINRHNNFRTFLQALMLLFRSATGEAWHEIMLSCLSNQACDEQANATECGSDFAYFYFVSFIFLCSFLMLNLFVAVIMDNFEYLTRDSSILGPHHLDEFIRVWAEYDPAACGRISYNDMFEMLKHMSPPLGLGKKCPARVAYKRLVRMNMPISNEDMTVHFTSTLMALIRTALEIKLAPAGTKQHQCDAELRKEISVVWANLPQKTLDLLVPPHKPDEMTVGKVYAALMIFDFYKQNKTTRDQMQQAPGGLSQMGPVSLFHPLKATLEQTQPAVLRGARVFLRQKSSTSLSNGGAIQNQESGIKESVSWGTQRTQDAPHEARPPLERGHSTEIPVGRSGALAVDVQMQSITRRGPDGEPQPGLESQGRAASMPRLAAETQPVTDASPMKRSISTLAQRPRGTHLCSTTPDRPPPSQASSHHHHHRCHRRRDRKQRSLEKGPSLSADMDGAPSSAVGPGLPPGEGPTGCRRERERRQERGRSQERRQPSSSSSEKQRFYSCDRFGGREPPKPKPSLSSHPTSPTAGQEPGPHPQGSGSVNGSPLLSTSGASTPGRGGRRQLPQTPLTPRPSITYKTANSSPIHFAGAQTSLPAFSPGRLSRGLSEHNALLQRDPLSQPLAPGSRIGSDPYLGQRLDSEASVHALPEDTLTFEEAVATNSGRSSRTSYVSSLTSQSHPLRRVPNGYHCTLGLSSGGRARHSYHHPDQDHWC
T1 sequence (P54284 whole entry partner): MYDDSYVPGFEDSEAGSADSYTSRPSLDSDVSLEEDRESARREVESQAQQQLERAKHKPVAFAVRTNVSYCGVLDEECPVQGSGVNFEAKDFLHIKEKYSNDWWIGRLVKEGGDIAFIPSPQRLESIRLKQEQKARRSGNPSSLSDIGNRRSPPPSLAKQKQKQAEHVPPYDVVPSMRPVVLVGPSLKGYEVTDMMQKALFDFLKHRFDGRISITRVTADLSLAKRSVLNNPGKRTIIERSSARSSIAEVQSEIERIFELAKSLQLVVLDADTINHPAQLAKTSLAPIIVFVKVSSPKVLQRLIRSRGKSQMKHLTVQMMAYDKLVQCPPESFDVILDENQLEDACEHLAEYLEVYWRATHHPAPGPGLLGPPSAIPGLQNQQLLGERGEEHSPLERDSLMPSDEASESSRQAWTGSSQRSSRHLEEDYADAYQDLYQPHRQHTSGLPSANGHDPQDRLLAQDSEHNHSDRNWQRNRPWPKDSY
T1 sequence (P54289 25-946 partner limits assumed): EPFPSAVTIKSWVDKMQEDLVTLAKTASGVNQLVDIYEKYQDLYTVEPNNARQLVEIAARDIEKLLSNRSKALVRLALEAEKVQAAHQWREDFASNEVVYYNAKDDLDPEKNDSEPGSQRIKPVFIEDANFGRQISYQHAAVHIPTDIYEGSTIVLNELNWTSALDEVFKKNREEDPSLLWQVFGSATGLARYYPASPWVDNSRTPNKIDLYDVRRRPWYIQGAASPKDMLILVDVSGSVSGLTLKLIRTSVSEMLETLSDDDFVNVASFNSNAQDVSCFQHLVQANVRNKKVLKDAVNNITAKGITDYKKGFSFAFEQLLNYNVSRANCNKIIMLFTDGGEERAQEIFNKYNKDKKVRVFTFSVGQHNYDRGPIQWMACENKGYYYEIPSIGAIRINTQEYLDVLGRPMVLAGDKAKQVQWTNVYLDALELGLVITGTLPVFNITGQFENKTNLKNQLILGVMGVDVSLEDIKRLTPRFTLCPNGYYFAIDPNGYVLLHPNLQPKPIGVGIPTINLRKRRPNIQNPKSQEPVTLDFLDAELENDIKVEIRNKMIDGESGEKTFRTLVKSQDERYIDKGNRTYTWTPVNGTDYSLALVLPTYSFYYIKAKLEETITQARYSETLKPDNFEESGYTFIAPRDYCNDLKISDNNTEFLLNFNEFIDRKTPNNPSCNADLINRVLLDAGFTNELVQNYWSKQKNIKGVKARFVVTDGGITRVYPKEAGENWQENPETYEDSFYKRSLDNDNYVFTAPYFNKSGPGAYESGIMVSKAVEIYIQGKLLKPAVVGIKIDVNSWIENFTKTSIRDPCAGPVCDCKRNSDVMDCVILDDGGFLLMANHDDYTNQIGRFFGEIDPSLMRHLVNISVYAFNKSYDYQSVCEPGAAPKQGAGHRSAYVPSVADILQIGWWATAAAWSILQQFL
T1 sequence (P54289 947-1103 partner limits assumed): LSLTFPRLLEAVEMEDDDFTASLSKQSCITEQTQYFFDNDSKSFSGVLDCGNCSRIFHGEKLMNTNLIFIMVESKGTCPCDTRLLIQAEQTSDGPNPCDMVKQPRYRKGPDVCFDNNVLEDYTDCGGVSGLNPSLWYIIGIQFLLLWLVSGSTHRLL

IC50, ≥ 31.6 µM:
O=C1NCCCC12CCCN(S(=O)(=O)c1cccc(OC(F)F)c1)C2 (stereo not drawn) [Compound 31, 8-({3-[(Difluoromethyl)oxy]phenyl}sulfonyl)-2,8-diazaspiro[5.5]undecan-1-one]
O=C1OCCC12CCCN(S(=O)(=O)c1ccc(C(F)(F)F)cc1)C2 (stereo not drawn) [Compound 28, 7-{[4-(Trifluoromethyl)phenyl]sulfonyl}-2-oxa-7-azaspiro[4.5]decan-1-one]
O=C1NCCCC12CCCN(S(=O)(=O)c1ccc(OC(F)(F)F)cc1)C2 (stereo not drawn) [Compound 13, 8-({4-[(Trifluoromethyl)oxy]phenyl}sulfonyl)-2,8-diazaspiro[5.5]undecan-1-one]
CCOc1ccc(S(=O)(=O)N2CCCC3(CCCN(C)C3=O)C2)cc1 (stereo not drawn) [Compound 34, 8-{[4-(Ethyloxy)phenyl]sulfonyl}-2-methyl-2,8-diazaspiro[5.5]undecan-1-one]
Cc1ccc(S(=O)(=O)N2CCCC3(CCNC3=O)C2)c(C(F)(F)F)c1 (stereo not drawn) [Compound 30, 7-{[4-Methyl-2-(trifluoromethyl)phenyl]sulfonyl}-2,7-diazaspiro[4.5]decan-1-one]
O=C1NCCC12CCCN(S(=O)(=O)c1cccc(OC(F)(F)F)c1)C2 (stereo not drawn) [Compound 15, 7-({3-[(Trifluoromethyl)oxy]phenyl}sulfonyl)-2,7-diazaspiro[4.5]decan-1-one]
O=C1NCCC12CCCN(S(=O)(=O)c1ccc(OC(F)(F)F)cc1)C2 (stereo not drawn) [Compound 6, 7-({4-[(Trifluoromethyl)oxy]phenyl}sulfonyl)-2,7-diazaspiro[4.5]decan-1-one]
Cc1ccc(S(=O)(=O)N2CCCC3(CCNC3=O)C2)c(C)c1 (stereo not drawn) [Compound 7, 7-[(2,4-Dimethylphenyl)sulfonyl]-2,7-diazaspiro[4.5]decan-1-one]
Cc1ccc(C(F)(F)F)cc1S(=O)(=O)N1CCCC2(CCNC2=O)C1 (stereo not drawn) [Compound 26, 7-{[2-Methyl-5-(trifluoromethyl)phenyl]sulfonyl}-2,7-diazaspiro[4.5]decan-1-one]
O=C1NCCC12CCCN(S(=O)(=O)c1cc(Cl)cc(Cl)c1)C2 (stereo not drawn) [Compound 19, 7-[(3,5-Dichlorophenyl)sulfonyl]-2,7-diazaspiro[4.5]decan-1-one]
O=C1NCCC12CCCN(S(=O)(=O)c1cc(C(F)(F)F)ccc1C(F)(F)F)C2 (stereo not drawn) [Compound 16, 7-{[2,5-Bis(trifluoromethyl)phenyl]sulfonyl}-2,7-diazaspiro[4.5]decan-1-one]
Cc1ccc(S(=O)(=O)N2CCCC3(CCNC3=O)C2)c(OC(F)(F)F)c1 (stereo not drawn) [Compound 24, 7-({4-Methyl-2-[(trifluoromethyl)oxy]phenyl}sulfonyl)-2,7-diazaspiro[4.5]decan-1-one]
O=C1NCCCC12CCCN(S(=O)(=O)c1cccc(C(F)(F)F)c1)C2 (stereo not drawn) [Compound 12, 8-{[3-(Trifluoromethyl)phenyl]sulfonyl}-2,8-diazaspiro[5.5]undecan-1-one]
COc1ccc(C(F)(F)F)cc1S(=O)(=O)N1CCCC2(CCNC2=O)C1 (stereo not drawn) [Compound 32, 7-{[2-(Methyloxy)-5-(trifluoromethyl)phenyl]sulfonyl}-2,7-diazaspiro[4.5]decan-1-one]
CN1CCC2(CCCN(S(=O)(=O)c3ccc(C(F)(F)F)cc3)C2)C1=O (stereo not drawn) [Compound 2, 2-Methyl-7-{[4-(trifluoromethyl)phenyl]sulfonyl}-2,7-diazaspiro[4.5]decan-1-one]
Cc1ccc(S(=O)(=O)N2CCCC3(CCCNC3=O)C2)cc1 (stereo not drawn) [Compound 35, 8-[(4-Methylphenyl)sulfonyl]-2,8-diazaspiro[5.5]undecan-1-one]
O=C1NCCCC12CCCN(S(=O)(=O)c1cc(C(F)(F)F)ccc1C(F)(F)F)C2 (stereo not drawn) [Compound 18, 8-{[2,5-Bis(trifluoromethyl)phenyl]sulfonyl}-2,8-diazaspiro[5.5]undecan-1-one]
O=C1NCCCC12CCCN(S(=O)(=O)c1cc(F)cc(C(F)(F)F)c1)C2 (stereo not drawn) [Compound 17, 8-{[3-Fluoro-5-(trifluoromethyl)phenyl]sulfonyl}-2,8-diazaspiro[5.5]undecan-1-one]
O=C1NCCC12CCCN(S(=O)(=O)c1ccc(OC(F)(F)F)c(Cl)c1)C2 (stereo not drawn) [Compound 20, 7-({3-Chloro-4-[(trifluoromethyl)oxy]phenyl}sulfonyl)-2,7-diazaspiro[4.5]decan-1-one]
CN1CCCC2(CCCN(S(=O)(=O)c3ccc(C(F)(F)F)cc3)C2)C1=O (stereo not drawn) [Compound 5, 2-Methyl-8-{[4-(trifluoromethyl)phenyl]sulfonyl}-2,8-diazaspiro[5.5]undecan-1-one]
O=C1NCCCC12CCCN(S(=O)(=O)c1cc(C(F)(F)F)cc(C(F)(F)F)c1)C2 (stereo not drawn) [Compound 27, 8-{[3,5-Bis(trifluoromethyl)phenyl]sulfonyl}-2,8-diazaspiro[5.5]undecan-1-one]
O=C1NCCC12CCCN(S(=O)(=O)c1cc(C(F)(F)F)cc(C(F)(F)F)c1)C2 (stereo not drawn) [Compound 8, 7-{[3,5-Bis(trifluoromethyl)phenyl]sulfonyl}-2,7-diazaspiro[4.5]decan-1-one]
Cc1cc(C(F)(F)F)cc(S(=O)(=O)N2CCCC3(CCNC3=O)C2)c1 (stereo not drawn) [Compound 25, 7-{[3-Methyl-5-(trifluoromethyl)phenyl]sulfonyl}-2,7-diazaspiro[4.5]decan-1-one]
O=C1NCCC12CCCN(S(=O)(=O)c1cc(F)cc(C(F)(F)F)c1)C2 (stereo not drawn) [Compound 14, 7-{[3-Fluoro-5-(trifluoromethyl)phenyl]sulfonyl}-2,7-diazaspiro[4.5]decan-1-one]
O=C1NCCC12CCCN(S(=O)(=O)c1ccc(C(F)(F)F)cc1Br)C2 (stereo not drawn) [Compound 21, 7-{[2-Bromo-4-(trifluoromethyl)phenyl]sulfonyl}-2,7-diazaspiro[4.5]decan-1-one]
Cc1ccc(S(=O)(=O)N2CCCC3(CCNC3=O)C2)cc1C(F)(F)F (stereo not drawn) [Compound 23, 7-{[4-Methyl-3-(trifluoromethyl)phenyl]sulfonyl}-2,7-diazaspiro[4.5]decan-1-one]
O=C1NCCC12CCCN(S(=O)(=O)c1cccc(C(F)(F)F)c1)C2 (stereo not drawn) [Compound 9, 7-{[3-(Trifluoromethyl)phenyl]sulfonyl}-2,7-diazaspiro[4.5]decan-1-one]
O=C1NCCCC12CCCN(S(=O)(=O)c1ccc(C(F)(F)F)cc1)C2 (stereo not drawn) [Compound 10, 8-{[4-(Trifluoromethyl)phenyl]sulfonyl}-2,8-diazaspiro[5.5]undecan-1-one]
O=C1NCCC12CCCN(S(=O)(=O)c1cccc(OC(F)F)c1)C2 (stereo not drawn) [Compound 33, 7-({3-[(Difluoromethyl)oxy]phenyl}sulfonyl)-2,7-diazaspiro[4.5]decan-1-one]
O=C1OCCC12CCCN(S(=O)(=O)c1ccc(OC(F)(F)F)cc1)C2 (stereo not drawn) [Compound 29, 7-({4-[(Trifluoromethyl)oxy]phenyl}sulfonyl)-2-oxa-7-azaspiro[4.5]decan-1-one]
